Among the data in patent US10550105B2 (Ribon Therapeutics Inc., priority 2018, dated 2020) are IC50 values, retold here.

Chain of PARP7 (Q7Z3E1 whole entry): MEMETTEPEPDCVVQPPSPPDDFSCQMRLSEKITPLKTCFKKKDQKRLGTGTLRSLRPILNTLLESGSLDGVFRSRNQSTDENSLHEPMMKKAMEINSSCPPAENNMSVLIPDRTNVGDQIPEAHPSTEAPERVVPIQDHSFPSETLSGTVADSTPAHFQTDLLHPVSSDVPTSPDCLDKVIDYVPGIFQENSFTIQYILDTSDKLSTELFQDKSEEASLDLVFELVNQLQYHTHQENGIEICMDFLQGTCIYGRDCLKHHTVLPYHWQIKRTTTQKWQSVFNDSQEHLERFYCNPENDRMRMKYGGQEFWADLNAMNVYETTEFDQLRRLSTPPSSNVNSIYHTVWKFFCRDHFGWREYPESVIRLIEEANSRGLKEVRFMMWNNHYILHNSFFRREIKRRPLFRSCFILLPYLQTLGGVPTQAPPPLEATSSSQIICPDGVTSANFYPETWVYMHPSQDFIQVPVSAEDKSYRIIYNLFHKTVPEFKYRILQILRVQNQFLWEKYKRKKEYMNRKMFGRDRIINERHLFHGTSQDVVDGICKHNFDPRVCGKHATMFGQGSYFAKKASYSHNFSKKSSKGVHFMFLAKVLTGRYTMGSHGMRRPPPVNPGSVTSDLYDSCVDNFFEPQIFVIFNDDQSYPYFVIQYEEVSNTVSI

The assay deals with PARP7 (Homo sapiens (Human), UniProt Q7Z3E1). The assay is described as follows: Enzymatic assay for inhibition of PARP7: TR-FRET displacement of biotinylated Probe A from the TIPARP active site. The class given is binding. Conditions: Table A-1. An outline of the steps:
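Compounds were tested as dose-response series, and reactions were incubated a further 30 min at 25° C. TR-FRET was read at 320 nm excitation with 615 and 665 nm emission after a 90 μs delay. The 665/615 ratio gave the TIPARP–Probe A complex, and % inhibition was fitted against concentration.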
In general terms: Time-resolved FRET reads energy transfer from a long-lived donor to a nearby acceptor.
For the molecule `N#Cc1ccc(N2CCN(C(=O)CCNC[C@@H]3c4ccccc4CN3c3cn[nH]c(=O)c3C(F)(F)F)CC2)nc1` [Example 146A, 6-[4-[3-([[(1S)-2-[6-oxo-5-(trifluoromethyl)-1,6-dihydropyridazin-4-yl]-2,3-dihydro-1H-isoindol-1-yl]methyl]amino)propanoyl]piperazin-1-yl]pyridine-3-carbonitrile], the IC50 (in general, the concentration needed to halve the response being measured) was less than 100 nM.

Turning to `N#Cc1ccc(N2CCN(C(=O)CCNC[C@H]3c4ccccc4CN3c3cn[nH]c(=O)c3C(F)(F)F)CC2)nc1` [Example 146B, 6-[4-[3-([[(1R)-2-[6-oxo-5-(trifluoromethyl)-1,6-dihydropyridazin-4-yl]-2,3-dihydro-1H-isoindo1-1-yl]methyl]amino)propanoyl]piperazin-1-yl]pyridine-3-carbonitrile], the IC50 was less than 100 nM.

`O=C(C[C@@H]1CC[C@@H]([C@@H]2CCCN2c2cn[nH]c(=O)c2C(F)(F)F)O1)N1CCN(c2ncc(Cl)cn2)CC1` [Example 147A, 5-[(2S)-2-[(2S,5S)-5-[2-[4-(5-chloropyrimidin-2-yl)piperazin-1-yl]-2-oxoethyl]oxolan-2-yl]pyrrolidin-1-yl]-4-(trifluoromethyl)-2,3-dihydropyridazin-3-one] had an IC50 of less than 100 nM.

`O=C(C[C@H]1CC[C@@H]([C@@H]2CCCN2c2cn[nH]c(=O)c2C(F)(F)F)O1)N1CCN(c2ncc(Cl)cn2)CC1` [Example 147B, 5-[(2S)-2-[(2S,5R)-5-[2-[4-(5-chloropyrimidin-2-yl)piperazin-1-yl]-2-oxoethyl]oxolan-2-yl]pyrrolidin-1-yl]-4-(trifluoromethyl)-2,3-dihydropyridazin-3-one] yielded a half-maximal inhibitory concentration (IC50) of less than 100 nM.

Turning to `O=C(C[C@H]1CC[C@H]([C@@H]2CCCN2c2cn[nH]c(=O)c2C(F)(F)F)O1)N1CCN(c2ncc(Cl)cn2)CC1` [Example 147D, 5-[(2S)-2-[(2R,5R)-5-[2-[4-(5-chloropyrimidin-2-yl)piperazin-1-yl]-2-oxoethyl]oxolan-2-yl]pyrrolidin-1-yl]-4-(trifluoromethyl)-2,3-dihydropyridazin-3-one], the half-inhibitory concentration (IC50) was less than 100 nM.

Molecule `O=C(C[C@@H]1CC[C@@H]([C@@H]2CCCN2c2cn[nH]c(=O)c2C(F)(F)F)O1)N1CCN(c2ccc(Cl)cn2)CC1` [Example 148A, 5-[(2S)-2-[(2S,5S)-5-[2-[4-(5-chloropyridin-2-yl)piperazin-1-yl]-2-oxoethyl]oxolan-2-yl]pyrrolidin-1-yl]-4-(trifluoromethyl)-2,3-dihydropyridazin-3-one] registered an IC50 of less than 100 nM.

Consider `O=C(C[C@@H]1CC[C@H]([C@@H]2CCCN2c2cn[nH]c(=O)c2C(F)(F)F)O1)N1CCN(c2ccc(Cl)cn2)CC1` [Example 148B, 5-[(2S)-2-[(2R,5S)-5-[2-[4-(5-chloropyridin-2-yl)piperazin-1-yl]-2-oxoethyl]oxolan-2-yl]pyrrolidin-1-yl]-4-(trifluoromethyl)-2,3-dihydropyridazin-3-one], for which the IC50 was in the range of 100 to 1000 nM.

For the molecule `O=C(C[C@H]1CC[C@H]([C@@H]2CCCN2c2cn[nH]c(=O)c2C(F)(F)F)O1)N1CCN(c2ccc(Cl)cn2)CC1` [Example 148C, 5-[(2S)-2-[(2R,5R)-5-[2-[4-(5-chloropyridin-2-yl)piperazin-1-yl]-2-oxoethyl]oxolan-2-yl]pyrrolidin-1-yl]-4-(trifluoromethyl)-2,3-dihydropyridazin-3-one], the IC50 is less than 100 nM.

With `O=C(C[C@H]1CC[C@@H]([C@@H]2CCCN2c2cn[nH]c(=O)c2C(F)(F)F)O1)N1CCN(c2ccc(Cl)cn2)CC1` [Example 148D, 5-[(2S)-2-[(2S,5R)-5-[2-[4-(5-chloropyridin-2-yl)piperazin-1-yl]-2-oxoethyl]oxolan-2-yl]pyrrolidin-1-yl]-4-(trifluoromethyl)-2,3-dihydropyridazin-3-one], the IC50 was less than 100 nM.
